# Data taken from US12710419B2, “3D sensors for simultaneous detection of bioelectronic and biomechanical signals in tissue” (UNIVERSITY OF MASSACHUSETTS, priority 2022, dated 2026).
# Test system: cardiomyocytes
# Experiment: Drug tests on cultured cardiomyocytes recorded with 3D nanotransistor biosensor (AP and mechanical signals)
# Type: cell-based, human
# Settings: for amplitude of AP / amplitude of broad peaks (mechanical signal): after adding drug, 20 μM, electrical recording
# Description: Human embryonic stem cell-derived cardiomyocytes (hESC-CMs), which are considered promising in vitro models of cardiac health and disease, were cultured on the device substrate.
# As part of experimental trials, drug tests were performed to further reveal the potential of implementing the sensors in pharmacological and pathological studies on cells. Blebbistatin, an inhibitor of myosin essential for motile machinery, was used to suppress cell contraction, as shown in FIG. 3A.
# Conversely, lidocaine, a Na+ channel blocker, was added to suppress Na+ influx which contributes mostly to extracellular AP, as shown in FIG. 3D.
# A Ca^2+ dysfunctional model was also built by treating the cardiomyocytes with isradipine, a Ca^2+ channel blocker used for treating a wide variety of cardiovascular disorders, as shown in FIG. 3G and its inset.
# Cardiomyocytes were differentiated from human embryonic stem cells (hESCs, WAe009-A, H9) and human induced pluripotent stem cells (hiPSCs, generated from human primary T cells using episomal reprogramming) following methods described previously. Briefly, both cell types were maintained in the 60 mm tissue culture dishes coated with 10 ug/mL Matrigel in DMEM-F12 (Gibco™) using Essential 8 medium (Gibco™) and sub-passaged every 3-4 days. During differentiation, cells were seeded in a 12-well plate for 2-3 days until confluency, then replaced with RPMI 1640 medium (Gibco™) plus 1% B27-insulin (Gibco™) and 8 μM CHIR99021 (Tocris Bioscience™) (day 0). After 24 h (day 1), the medium was changed to RPMI 1640 plus 1% B27-insulin. On day 3, day 5, and day 7, the medium was changed to RPMI 1640 plus 1% B27-insulin and 5 μM IWR-1-endo (Cayman Chemical), RPMI 1640 plus 1% B27-insulin, and RPMI 1640 plus 1% B27, respectively. The medium was then replaced with RPMI 1640 plus 1% B27 every other day. […] During days 10-15, cardiomyocytes were ready for experiments. The cells were rinsed with 1×DPBS to remove calcium and inhibit contraction, then incubated with 0.5 mL of 0.5 mM Trypsin-EDTA (Gibco™) for 5 mins in a 37° C. incubator to dissociate into single cells. The EDTA was then aspirated, and the cells were dissociated by gently pipetting with 2 mL RPMI 1640 plus 1% B27 using a 1 ml pipet tip. The cells were transferred to a 15 mL conical tube and centrifuged at 250 g for 3 minutes, then resuspended with 2 mL RPMI 1640 plus 1% B27 supplemented with 10% Fetal Bovine Serum (Gibco™) and 10 μM Y-27632 ROCK inhibitor (Tocris Bioscience™). The device substrate integrated with nanotransistors was sterilized by incubating in 70% ethanol solution (1 h) at room temperature and then UV-treated (1 h). The device was coated with 20 μg/mL Matrigel in RPMI 1640 for 1 h at 37° C. Cells were seeded on the device substrate at the density of 3-5×10^5/cm^2. The cardiomyocytes were maintained using RPMI 1640 plus 1% B27 by changing the medium daily. Electrical recordings were typically performed starting from day 5 after the cell seeding.
# All in vitro electrical recordings were carried out at the ambient environment with an Au reference electrode.
# [1] = treatment, concentration not given
structure (smiles),measurement,setting,value
Cc1cccc(CCN2CCC(C(=O)c3ccc(NS(C)(=O)=O)cc3)CC2)n1 [E-4031],contractile frequency and amplitude,[1],fluctuations in contractile frequency and amplitude
Cc1ccc2c(c1)C(=O)C1(O)CCN(c3ccccc3)C1=N2 (centres unmarked) [blebbistatin],amplitude of AP,,maintained the similar level
same,amplitude of broad peaks (mechanical signal),,substantial decrease
same,broad peaks (mechanical signal) after washing out,washing out blebbistatin,restored the broad peaks
CCN(CC)CC(=O)Nc1c(C)cccc1C [lidocaine],amplitude of AP,,prominent suppression
same,amplitude of broad peaks (mechanical signal),,no obvious effect
same,AP amplitude,"after lidocaine 20 μM, before ~10 nS",~ 2 nS
same,AP duration,"after lidocaine 20 μM, before ~19 ms",~ 40 ms
COC(=O)C1=C(C)NC(C)=C(C(=O)OC(C)C)C1c1cccc2nonc12 (centres unmarked) [isradipine],AP,"isradipine treatment, 20 nM",concurrent decrease
same,mechanical signal,"isradipine treatment, 20 nM",apparent suppression
same,time to apparent suppression of mechanical signal,"isradipine treatment, 20 nM",about 100 seconds
same,mechanical and AP signals after washing out,washing out isradipine,restored both signals
NC[C@H](O)c1ccc(O)c(O)c1 [norepinephrine],conduction pathway,[1],alteration of the conduction pathway
same,contractile frequency,[1],increased contractile frequency
